The record followed here is EP1116727B1, “PEPTIDE DERIVATIVE” (Takeda Chemical Industries, Ltd., priority 1998, dated 2000).

Non-standard residues stand in square brackets, D forms with d. Residues, ends and D or L forms follow the SMILES beside them. No end group written: not given here. Phe(4-Cl) = N[C@@H](Cc1ccc(Cl)cc1)C(=O)O; Cha = N[C@@H](CC1CCCCC1)C(=O)O; Nle = CCCC[C@H](N)C(=O)O

This experiment deals with T1, APJ (Homo sapiens, UniProt P35414).
T1 construct: expressed in transfected cells; host or cells: CHO cells (CHO-A10 clone)
T1 sequence (P35414 1-380): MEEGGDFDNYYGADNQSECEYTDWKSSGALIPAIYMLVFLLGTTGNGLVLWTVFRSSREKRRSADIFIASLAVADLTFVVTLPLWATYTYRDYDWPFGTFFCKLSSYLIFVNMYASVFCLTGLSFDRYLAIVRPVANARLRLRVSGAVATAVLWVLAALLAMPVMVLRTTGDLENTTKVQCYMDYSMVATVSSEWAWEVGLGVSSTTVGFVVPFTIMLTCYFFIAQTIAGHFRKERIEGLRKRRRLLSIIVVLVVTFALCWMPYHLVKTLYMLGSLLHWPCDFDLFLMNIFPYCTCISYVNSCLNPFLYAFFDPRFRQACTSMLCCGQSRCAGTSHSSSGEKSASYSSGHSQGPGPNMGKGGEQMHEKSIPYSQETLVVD
In words: Suppression activity on forskolin stimulated cAMP production. The format is cell-based. Particulars: suppression of cAMP production stimulated with 1 µM forskolin; CHO-A10 clone cells; 37°C for 30 minutes; cAMP EIA. As for the experimental part:
Subsequently, after washing with 500 µl of the assay buffer once, 500 µl each of the sample dissolved in the assay buffer added with 1 µM of forskolin were put into each well to incubate at 37°C for 30 minutes. Wells incubated with assay buffer added with no forskolin were prepared to know the basic cAMP production of cells (basal level), and similarly, wells incubated with assay buffer added with forskolin were also prepared to know the maximum cAMP production with stimulation of foskolin (maximum level). After completion of incubation, each well was washed with 500 µl of the assay buffer once, added with 500 µl of the lysis buffer IB included in the cAMP EIA system (Amersham Pharmacia Biotech) and extraction of cAMP was carried out. Following the prescription for the kit, a portion of 100 µl each of the extracts was used to assay. The level of suppression activity on cAMP production was calculated by taking the difference between the maximum level and cAMP in the wells that was added with a sample (amount of the suppression of cAMP production), and by taking it as a percentage relative to the increased production (difference between maximum level and basal level) in cAMP associated with forskolin stimulation, and EC50 was determined based on the dose response curve.
(In general: cAMP levels reflect the balance of adenylyl cyclase and phosphodiesterase activity.)

Consider `CC(C)C[C@H](NC(=O)[C@H](CCCNC(=N)N)NC(=O)[C@@H]1CCCN1C(=O)[C@H](CCCNC(=N)N)NC(=O)[C@H](CCC(N)=O)NC(=O)[C@H](CCCNC(=N)N)NC(=O)[C@@H](N)CCCNC(=N)N)C(=O)N[C@@H](CO)C(=O)N[C@@H](Cc1c[nH]cn1)C(=O)N[C@@H](CCCCN)C(=O)NCC(=O)N1CCC[C@H]1C(=O)N[C@@H](CC1CCCCC1)C(=O)O` [Example 36] (H-RRQRPRLSHKGP[Cha]-OH), for which the EC50 turned out to be 0.16 nM.

With `CSCC[C@H](NC(=O)[C@@H]1CCCN1C(=O)CNC(=O)[C@H](CCCCN)NC(=O)[C@H](Cc1c[nH]cn1)NC(=O)[C@H](CO)NC(=O)[C@H](CC(C)C)NC(=O)[C@H](CCCNC(=N)N)NC(=O)[C@@H]1CCCN1C(=O)[C@@H](N)CCCNC(=N)N)C(=O)N1CCC[C@H]1C(=O)N[C@@H](Cc1ccc2ccccc2c1)C(=O)O` [Example 30], a half-maximal effect (EC50) was put at 0.28 nM. The compound `CSCC[C@H](NC(=O)[C@@H]1CCCN1C(=O)CNC(=O)[C@H](CCCCN)NC(=O)[C@H](Cc1c[nH]cn1)NC(=O)[C@H](CO)NC(=O)[C@H](CC(C)C)NC(=O)[C@H](CCCNC(=N)N)NC(=O)[C@@H]1CCCN1C(=O)[C@@H](N)CCCNC(=N)N)C(=O)N1CCC[C@H]1C(=O)N[C@@H](Cc1ccc(Cl)cc1)C(=O)O` [Example 32] showed an EC50 of 0.2 nM. Under `CSCC[C@H](NC(=O)[C@@H]1CCCN1C(=O)CNC(=O)[C@H](CCCCN)NC(=O)[C@H](Cc1c[nH]cn1)NC(=O)[C@H](CO)NC(=O)[C@H](CC(C)C)NC(=O)[C@H](CCCNC(=N)N)NC(=O)[C@@H]1CCCN1C(=O)[C@@H](N)CCCNC(=N)N)C(=O)N[C@@H](Cc1ccc(Cl)cc1)C(=O)O` [Example 33] stands 0.1 nM; under `CSCC[C@H](NC(=O)[C@@H]1CCCN1C(=O)CNC(=O)[C@H](CCCCN)NC(=O)[C@H](Cc1c[nH]cn1)NC(=O)[C@H](CO)NC(=O)[C@H](CC(C)C)NC(=O)[C@H](CCCNC(=N)N)NC(=O)[C@@H]1CCCN1C(=O)[C@@H](N)CCCNC(=N)N)C(=O)N[C@@H](Cc1ccc2ccccc2c1)C(=O)O` [Example 31], 0.3 nM.

For the compound `CSCC[C@H](NC(=O)[C@@H]1CCCN1C(=O)CNC(=O)[C@H](CCCCN)NC(=O)[C@H](Cc1c[nH]cn1)NC(=O)[C@H](CO)NC(=O)[C@H](CC(C)C)NC(=O)[C@H](CCCNC(=N)N)NC(=O)[C@@H]1CCCN1C(=O)[C@H](CCCNC(=N)N)NC(=O)[C@H](CCC(N)=O)NC(=O)[C@H](CCCNC(=N)N)NC(=O)[C@@H](N)CCCNC(=N)N)C(=O)N1CCC[C@H]1C(=O)N[C@@H](Cc1ccc(Cl)cc1)C(=O)O` [Example 37], the response was half-maximal at 0.14 nM (EC50). Turning to `CCCC[C@H](NC(=O)[C@H](Cc1c[nH]cn1)NC(=O)[C@H](CO)NC(=O)[C@H](CC(C)C)NC(=O)[C@H](CCCNC(=N)N)NC(=O)[C@@H]1CCCN1C(=O)[C@H](CCCNC(=N)N)NC(=O)[C@H](CCC(N)=O)NC(=O)[C@H](CCCNC(=N)N)NC(=O)[C@@H](N)CCCNC(=N)N)C(=O)NCC(=O)N1CCC[C@H]1C(=O)N[C@@H](CCSC)C(=O)N1CCC[C@H]1C(=O)N[C@@H](Cc1ccc(Cl)cc1)C(=O)O` [Example 38] (H-RRQRPRLSH[Nle]GPMP[Phe(4-Cl)]-OH), the EC50 was determined as 0.35 nM. For `CSCC[C@H](NC(=O)[C@@H]1CCCN1C(=O)CNC(=O)[C@H](CCCCN)NC(=O)[C@H](Cc1c[nH]cn1)NC(=O)[C@H](CO)NC(=O)[C@H](CC(C)C)NC(=O)[C@H](CCCNC(=N)N)NC(=O)[C@@H]1CCCN1C(=O)[C@@H](N)CCCNC(=N)N)C(=O)N[C@@H](CC1CCCCC1)C(=O)O` [Example 34] the value was 0.37 nM; for `CCCC[C@H](NC(=O)[C@@H]1CCCN1C(=O)CNC(=O)[C@H](CCCCN)NC(=O)[C@H](Cc1c[nH]cn1)NC(=O)[C@H](CO)NC(=O)[C@H](CC(C)C)NC(=O)[C@H](CCCNC(=N)N)NC(=O)[C@@H]1CCCN1C(=O)[C@H](CCCNC(=N)N)NC(=O)[C@@H]1CCC(=O)N1)C(=O)N1CCC[C@H]1C(=O)N[C@@H](Cc1ccc(O)cc1)C(=O)O` [Example 4], 0.19 nM; for `CCCC[C@H](NC(=O)[C@@H]1CCCN1C(=O)CNC(=O)[C@H](CCCCN)NC(=O)[C@H](Cc1c[nH]cn1)NC(=O)[C@H](CO)NC(=O)[C@H](CC(C)C)NC(=O)[C@H](CCCNC(=N)N)NC(=O)[C@@H]1CCCN1C(=O)[C@H](CCCNC(=N)N)NC(=O)[C@H](CCC(N)=O)NC(=O)[C@H](CCCNC(=N)N)NC(=O)[C@H](CCCNC(=N)N)NC(=O)[C@H](Cc1ccccc1)NC(=O)[C@H](CCCCN)NC(=O)[C@H](CCCNC(=N)N)NC(=O)[C@H](CCCNC(=N)N)NC(=O)CNC(=O)CNC(=O)[C@H](CCC(N)=O)NC(=O)[C@H](Cc1c[nH]c2ccccc12)NC(=O)[C@@H]1CCCN1C(=O)CNC(=O)[C@@H]1CCCN1C(=O)CNC(=O)[C@H](CC(N)=O)NC(=O)[C@H](CCCNC(=N)N)NC(=O)[C@H](CO)NC(=O)CNC(=O)[C@H](CCCNC(=N)N)NC(=O)[C@@H]1CCCN1C(=O)[C@H](CCC(N)=O)NC(=O)[C@@H](NC(=O)[C@@H](N)CC(C)C)C(C)C)C(=O)N1CCC[C@H]1C(=O)N[C@@H](Cc1ccc(O)cc1)C(=O)O` [Example 2] (H-LVQPRGSRNGPGPWQGGRRKFRRQRPRLSHKGP[Nle]PY-OH), 0.41 nM.

In turn, `CC(C)C[C@H](NC(=O)[C@H](CCCNC(=N)N)NC(=O)[C@@H]1CCCN1C(=O)[C@H](CCCNC(=N)N)NC(=O)[C@@H]1CCC(=O)N1)C(=O)N[C@@H](CO)C(=O)N[C@@H](Cc1c[nH]cn1)C(=O)N[C@@H](CCCCN)C(=O)NCC(=O)N1CCC[C@H]1C(=O)N[C@@H](CC1CCCCC1)C(=O)N1CCC[C@H]1C(=O)N[C@@H](Cc1ccccc1)C(=O)O` [Example 35] returned an EC50 of 0.34 nM. For “LVQPRGSRNGPGPWQGGRRKFRRQRPRLSHKGPMPF [reference compound]” the value was 0.52 nM.

One may read the EC50 as the midpoint of the concentration-response curve. Read a high EC50 as weaker potency.
